Experimental data reported in the supplement of paper PMC10883282.

Columns and labels:
Test in all cases: relative viability vs DMSO control (72 h) (fraction); higher = more viable cells
A204 = system: A204
In short: (§1)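 Plates held 72 h at 37 °C and 5% CO2 contained sarcoma cell lines seeded in 384-well format to reach 80–90% confluence, plus 2.5 µl of serially diluted compound added after 24 h. Source plate concentrations ran from 10 mM to 0.0002 mM, with 0.1% DMSO as vehicle and a 5 µM positive control. Percent growth from ATPLite readings, averaged over up to triplicate wells, gave relative viability. Values were rescaled with 1 as full and 0 as none.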

G401 = system: G401
In short: as §1

HS729 = system: HS729
In short: as §1

KHOS-240S = system: KHOS-240S
In short: as §1

MES-SA = system: MES-SA
In short: as §1

SK-ES-1 = system: SK-ES-1
In short: as §1

SK-LMS-1 = system: SK-LMS-1
In short: as §1

SW1353 = system: SW1353
In short: as §1

SW684 = system: SW684
In short: as §1

SW872 = system: SW872
In short: as §1

SW982 = system: SW982
In short: as §1

SYO-1 = system: SYO-1
In short: as §1

COC(=O)N[C@@H](C)CNc1nccc(-c2cn(C(C)C)nc2-c2cc(Cl)cc(NS(C)(=O)=O)c2F)n1 [Encorafenib]
Conditions	relative viability
A204, 0.00017 µM	0.99
A204, 0.00051 µM	0.991
A204, 0.00152 µM	1
A204, 0.00457 µM	0.982
A204, 0.01372 µM	0.973
A204, 0.04115 µM	0.988
A204, 0.1235 µM	1
A204, 0.3704 µM	0.96
A204, 1.111 µM	0.838
A204, 3.333 µM	0.602
A204, 10 µM	0.574
G401, 0.00017 µM	0.975
G401, 0.00051 µM	1.01
G401, 0.00152 µM	0.9948
G401, 0.00457 µM	1.01
G401, 0.01372 µM	1.02
G401, 0.04115 µM	1.06
G401, 0.1235 µM	1.04
G401, 0.3704 µM	1.01
G401, 1.111 µM	0.841
G401, 3.333 µM	0.653
G401, 10 µM	0.5834
HS729, 0.00017 µM	1.069
HS729, 0.00051 µM	1.077
HS729, 0.00152 µM	1.07
HS729, 0.00457 µM	0.993
HS729, 0.01372 µM	0.994
HS729, 0.04115 µM	0.995
HS729, 0.1235 µM	1.04
HS729, 0.3704 µM	0.975
HS729, 1.111 µM	0.821
HS729, 3.333 µM	0.69
HS729, 10 µM	0.719
KHOS-240S, 0.00017 µM	0.998
KHOS-240S, 0.00051 µM	0.986
KHOS-240S, 0.00152 µM	1.01
KHOS-240S, 0.00457 µM	0.993
KHOS-240S, 0.01372 µM	0.964
KHOS-240S, 0.04115 µM	0.981
KHOS-240S, 0.1235 µM	0.991
KHOS-240S, 0.3704 µM	0.97
KHOS-240S, 1.111 µM	0.904
KHOS-240S, 3.333 µM	0.788
KHOS-240S, 10 µM	0.732
MES-SA, 0.00017 µM	0.98
MES-SA, 0.00051 µM	0.944
MES-SA, 0.00152 µM	1
MES-SA, 0.00457 µM	0.985
MES-SA, 0.01372 µM	0.958
MES-SA, 0.04115 µM	1.01
MES-SA, 0.1235 µM	0.998
MES-SA, 0.3704 µM	0.972
MES-SA, 1.111 µM	0.714
MES-SA, 3.333 µM	0.461
MES-SA, 10 µM	0.547
SK-ES-1, 0.00017 µM	0.928
SK-ES-1, 0.00051 µM	0.948
SK-ES-1, 0.00152 µM	0.972
SK-ES-1, 0.00457 µM	0.979
SK-ES-1, 0.01372 µM	0.956
SK-ES-1, 0.04115 µM	1.02
SK-ES-1, 0.1235 µM	0.982
SK-ES-1, 0.3704 µM	0.813
SK-ES-1, 1.111 µM	0.5375
SK-ES-1, 3.333 µM	0.308
SK-ES-1, 10 µM	0.394
SK-LMS-1, 0.00017 µM	1.01
SK-LMS-1, 0.00051 µM	1.02
SK-LMS-1, 0.00152 µM	0.9804
SK-LMS-1, 0.00457 µM	1.017
SK-LMS-1, 0.01372 µM	0.953
SK-LMS-1, 0.04115 µM	0.933
SK-LMS-1, 0.1235 µM	0.9782
SK-LMS-1, 0.3704 µM	0.894
SK-LMS-1, 1.111 µM	0.7389
SK-LMS-1, 3.333 µM	0.49
SK-LMS-1, 10 µM	0.441
SW684, 0.00017 µM	0.979
SW684, 0.00051 µM	1
SW684, 0.00152 µM	1.04
SW684, 0.00457 µM	1.04
SW684, 0.01372 µM	1.04
SW684, 0.04115 µM	1.04
SW684, 0.1235 µM	1.05
SW684, 0.3704 µM	1.01
SW684, 1.111 µM	0.943
SW684, 3.333 µM	0.824
SW684, 10 µM	0.834
SW872, 0.00017 µM	0.96
SW872, 0.00051 µM	0.952
SW872, 0.00152 µM	0.96
SW872, 0.00457 µM	0.902
SW872, 0.01372 µM	0.729
SW872, 0.04115 µM	0.599
SW872, 0.1235 µM	0.555
SW872, 0.3704 µM	0.524
SW872, 1.111 µM	0.459
SW872, 3.333 µM	0.335
SW872, 10 µM	0.295
SW982, 0.00017 µM	0.94
SW982, 0.00051 µM	0.946
SW982, 0.00152 µM	0.887
SW982, 0.00457 µM	0.877
SW982, 0.01372 µM	0.853
SW982, 0.04115 µM	0.828
SW982, 0.1235 µM	0.798
SW982, 0.3704 µM	0.704
SW982, 1.111 µM	0.489
SW982, 3.333 µM	0.327
SW982, 10 µM	0.308
SW1353, 0.00017 µM	1.06
SW1353, 0.00051 µM	1.09
SW1353, 0.00152 µM	1.1
SW1353, 0.00457 µM	1.08
SW1353, 0.01372 µM	1.086
SW1353, 0.04115 µM	1.08
SW1353, 0.1235 µM	1.07
SW1353, 0.3704 µM	1.1
SW1353, 1.111 µM	0.966
SW1353, 3.333 µM	0.767
SW1353, 10 µM	0.739
SYO-1, 0.00017 µM	0.988
SYO-1, 0.00051 µM	0.992
SYO-1, 0.00152 µM	0.972
SYO-1, 0.00457 µM	0.985
SYO-1, 0.01372 µM	1.003
SYO-1, 0.04115 µM	0.997
SYO-1, 0.1235 µM	1.018
SYO-1, 0.3704 µM	1.02
SYO-1, 1.111 µM	0.988
SYO-1, 3.333 µM	0.877
SYO-1, 10 µM	0.818
